Where two headings read alike, the source gives them in different places.
Experiments:
Format in all cases: biochemical
[1] = molecular target: T1, BTK-WT (Homo sapiens, UniProt Q06187); assay: Btk in vitro inhibitory activity (one of Method A TR-FRET, Method B electrophoretic mobility shift, Method C radiometric filter binding); details: read-out: IC50 BTK-WT
T1 construct: purified from insect cells as a full-length construct containing an N-terminal 6X-His tag; His6 (N); made in house; host or cells: insect cells (baculovirus Sf21 in Method B)

[2] = molecular target: T2, JAK3 (Homo sapiens, UniProt P52333); assay: Inhibition of a panel of kinases, in vitro HotSpot kinase assay: JAK3; details: read-out: IC50 JAK3
T2 sequence (P52333 1-1124): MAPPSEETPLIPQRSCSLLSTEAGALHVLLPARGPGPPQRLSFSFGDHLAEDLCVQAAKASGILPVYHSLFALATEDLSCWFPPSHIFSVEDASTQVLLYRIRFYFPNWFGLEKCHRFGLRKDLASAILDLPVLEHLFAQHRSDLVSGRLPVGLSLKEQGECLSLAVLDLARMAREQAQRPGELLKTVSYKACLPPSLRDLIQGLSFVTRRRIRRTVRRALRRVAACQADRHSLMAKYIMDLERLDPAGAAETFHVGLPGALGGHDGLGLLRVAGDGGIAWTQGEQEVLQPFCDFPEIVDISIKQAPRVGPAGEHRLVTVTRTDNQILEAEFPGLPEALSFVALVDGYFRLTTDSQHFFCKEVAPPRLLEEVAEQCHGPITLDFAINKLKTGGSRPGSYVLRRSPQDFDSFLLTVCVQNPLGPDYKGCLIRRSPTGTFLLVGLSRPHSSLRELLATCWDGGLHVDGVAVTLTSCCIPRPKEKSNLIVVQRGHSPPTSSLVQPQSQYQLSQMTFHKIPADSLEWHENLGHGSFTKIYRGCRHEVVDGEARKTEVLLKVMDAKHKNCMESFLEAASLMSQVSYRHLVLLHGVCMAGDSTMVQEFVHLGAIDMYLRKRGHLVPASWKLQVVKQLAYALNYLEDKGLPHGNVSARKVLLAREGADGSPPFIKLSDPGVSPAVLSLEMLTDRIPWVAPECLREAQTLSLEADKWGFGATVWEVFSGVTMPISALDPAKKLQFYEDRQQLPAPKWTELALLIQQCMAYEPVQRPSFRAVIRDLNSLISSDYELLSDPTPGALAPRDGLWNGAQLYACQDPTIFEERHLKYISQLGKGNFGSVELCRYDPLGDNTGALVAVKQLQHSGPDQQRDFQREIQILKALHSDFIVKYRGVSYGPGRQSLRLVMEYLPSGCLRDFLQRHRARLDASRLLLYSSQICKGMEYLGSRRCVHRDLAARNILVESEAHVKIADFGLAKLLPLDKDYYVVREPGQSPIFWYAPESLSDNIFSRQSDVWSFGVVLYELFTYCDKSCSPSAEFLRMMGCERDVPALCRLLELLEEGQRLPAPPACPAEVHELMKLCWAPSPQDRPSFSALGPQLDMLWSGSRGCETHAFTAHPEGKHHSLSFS

[3] = molecular target: LCK (Homo sapiens, UniProt P06239); assay: Inhibition of a panel of kinases, in vitro HotSpot kinase assay: LCK; details: read-out: IC50 LCK
[4] = molecular target: EGFR (Homo sapiens, UniProt P00533); assay: Inhibition of a panel of kinases, in vitro HotSpot kinase assay: EGFR
Procedure: (§1) The degree of inhibition of a panel of kinases is determined using the in vitro HotSpot kinase assay (purified enzymes, ^33P-ATP, an appropriate substrate and 1 μM ATP).

[5] = molecular target: SRC (Homo sapiens, UniProt P12931); assay: Inhibition of a panel of kinases, in vitro HotSpot kinase assay: SRC
Procedure: as §1

[6] = Table 13, A compounds, 1 μM ATP

Chain of EGFR (P00533 25-1210): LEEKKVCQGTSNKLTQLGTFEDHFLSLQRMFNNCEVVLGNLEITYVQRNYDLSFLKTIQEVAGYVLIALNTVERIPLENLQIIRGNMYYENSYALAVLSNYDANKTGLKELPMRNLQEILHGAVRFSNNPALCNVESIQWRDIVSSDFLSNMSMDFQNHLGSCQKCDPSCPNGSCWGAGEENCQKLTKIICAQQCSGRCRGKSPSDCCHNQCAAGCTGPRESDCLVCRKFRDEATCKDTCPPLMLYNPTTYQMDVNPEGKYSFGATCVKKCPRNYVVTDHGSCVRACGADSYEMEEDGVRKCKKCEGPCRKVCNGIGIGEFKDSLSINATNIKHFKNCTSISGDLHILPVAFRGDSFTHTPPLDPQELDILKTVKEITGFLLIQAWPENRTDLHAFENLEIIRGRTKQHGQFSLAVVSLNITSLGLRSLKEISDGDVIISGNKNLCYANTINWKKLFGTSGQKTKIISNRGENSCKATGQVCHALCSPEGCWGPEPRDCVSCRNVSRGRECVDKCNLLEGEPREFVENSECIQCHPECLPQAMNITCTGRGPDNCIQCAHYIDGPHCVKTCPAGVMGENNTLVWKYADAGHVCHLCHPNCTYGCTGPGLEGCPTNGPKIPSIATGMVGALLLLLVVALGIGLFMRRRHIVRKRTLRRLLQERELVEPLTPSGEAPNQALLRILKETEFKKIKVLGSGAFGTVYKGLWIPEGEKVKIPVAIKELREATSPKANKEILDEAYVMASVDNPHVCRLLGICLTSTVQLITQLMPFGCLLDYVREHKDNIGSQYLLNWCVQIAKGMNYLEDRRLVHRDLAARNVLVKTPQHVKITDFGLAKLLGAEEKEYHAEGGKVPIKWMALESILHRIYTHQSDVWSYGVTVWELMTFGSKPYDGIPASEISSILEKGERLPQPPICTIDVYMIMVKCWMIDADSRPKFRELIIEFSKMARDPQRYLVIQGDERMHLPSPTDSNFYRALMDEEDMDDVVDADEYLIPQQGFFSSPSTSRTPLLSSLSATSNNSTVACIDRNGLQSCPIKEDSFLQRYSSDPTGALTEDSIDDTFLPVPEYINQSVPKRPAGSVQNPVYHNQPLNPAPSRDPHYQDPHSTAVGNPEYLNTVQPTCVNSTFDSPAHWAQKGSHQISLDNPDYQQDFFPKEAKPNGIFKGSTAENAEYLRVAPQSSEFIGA
Chain of SRC (P12931 whole entry): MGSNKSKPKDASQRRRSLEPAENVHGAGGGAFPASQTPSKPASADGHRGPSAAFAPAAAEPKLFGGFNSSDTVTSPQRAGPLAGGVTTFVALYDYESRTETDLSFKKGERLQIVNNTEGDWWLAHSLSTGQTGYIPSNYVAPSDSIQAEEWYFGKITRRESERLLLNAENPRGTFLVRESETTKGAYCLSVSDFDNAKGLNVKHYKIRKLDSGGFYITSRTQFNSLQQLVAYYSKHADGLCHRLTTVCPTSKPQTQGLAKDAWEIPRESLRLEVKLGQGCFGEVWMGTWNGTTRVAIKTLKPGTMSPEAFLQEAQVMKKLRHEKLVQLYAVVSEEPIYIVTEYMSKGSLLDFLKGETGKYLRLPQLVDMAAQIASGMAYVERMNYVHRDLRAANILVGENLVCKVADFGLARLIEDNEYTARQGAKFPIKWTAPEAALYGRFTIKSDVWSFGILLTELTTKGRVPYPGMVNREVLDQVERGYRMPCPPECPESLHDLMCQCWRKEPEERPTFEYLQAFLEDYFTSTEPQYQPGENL
T1 sequence (Q06187 whole entry): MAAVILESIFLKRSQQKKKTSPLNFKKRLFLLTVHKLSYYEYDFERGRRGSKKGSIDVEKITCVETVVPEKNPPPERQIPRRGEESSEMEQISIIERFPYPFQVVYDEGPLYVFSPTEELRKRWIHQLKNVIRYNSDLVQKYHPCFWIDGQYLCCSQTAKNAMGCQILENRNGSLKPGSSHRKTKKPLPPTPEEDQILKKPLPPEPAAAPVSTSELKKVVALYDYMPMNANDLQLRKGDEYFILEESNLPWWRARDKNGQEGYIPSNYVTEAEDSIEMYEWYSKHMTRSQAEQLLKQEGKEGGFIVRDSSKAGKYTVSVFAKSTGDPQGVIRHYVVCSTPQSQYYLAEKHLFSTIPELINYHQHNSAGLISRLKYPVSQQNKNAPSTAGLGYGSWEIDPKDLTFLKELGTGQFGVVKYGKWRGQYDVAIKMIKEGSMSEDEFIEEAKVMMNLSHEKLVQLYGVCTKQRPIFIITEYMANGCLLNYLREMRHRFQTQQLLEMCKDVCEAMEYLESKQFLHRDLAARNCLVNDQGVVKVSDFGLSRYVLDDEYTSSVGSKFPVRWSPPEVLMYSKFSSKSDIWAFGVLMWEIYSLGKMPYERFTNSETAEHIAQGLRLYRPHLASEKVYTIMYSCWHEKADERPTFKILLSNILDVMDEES
Chain of LCK (P06239 whole entry): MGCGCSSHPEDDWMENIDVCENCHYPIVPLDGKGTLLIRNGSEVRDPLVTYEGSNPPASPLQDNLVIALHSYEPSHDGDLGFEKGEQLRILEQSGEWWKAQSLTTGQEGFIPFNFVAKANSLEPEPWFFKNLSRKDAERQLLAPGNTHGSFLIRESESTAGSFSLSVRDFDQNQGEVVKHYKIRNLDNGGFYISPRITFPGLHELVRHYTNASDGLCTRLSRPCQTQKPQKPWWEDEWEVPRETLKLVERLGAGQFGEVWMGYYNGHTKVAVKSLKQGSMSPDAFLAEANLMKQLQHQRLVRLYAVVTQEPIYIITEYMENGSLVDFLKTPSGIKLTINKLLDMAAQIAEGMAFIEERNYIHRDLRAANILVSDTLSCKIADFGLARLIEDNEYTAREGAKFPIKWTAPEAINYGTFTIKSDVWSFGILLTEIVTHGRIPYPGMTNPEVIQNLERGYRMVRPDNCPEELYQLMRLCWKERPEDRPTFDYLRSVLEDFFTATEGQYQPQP

IC50 ([1]; Table 13, A compounds)	IC50 [2, 6]	IC50 [3, 6]	IC50 [4, 6]	IC50 [5, 6]	IC50 ([1]; E compounds, Table 17)	IC50 ([2]; E compounds, Table 17)	IC50 ([3]; E compounds, Table 17)	IC50 ([4]; E compounds, Table 17)	IC50 ([5]; E compounds, Table 17)	Structure (SMILES)
≤ 10 nM	1000 to 10000 nM	100 to 1000 nM	> 10000 nM	10 to 100 nM						COCCN(C)Cc1cc(Nc2nc(N3CCC[C@@H](NC(=O)c4ccc(C5CC5)cc4)[C@H]3C)cnc2C(N)=O)sn1 [Example A-185, 5-((2R,3R)-3-(4-cyclopropylbenzamido)-2-methylpiperidin-1-yl)-3-(3-(((2-methoxyethyl)(meth-yl)amino)meth-yl)isothiazol-5-ylamino)pyr-azine-2-carboxamide]
≤ 10 nM	1000 to 10000 nM	100 to 1000 nM	1000 to 10000 nM	100 to 1000 nM						COCCn1cc(Nc2nc(N3CCC[C@@H](NC(=O)c4ccc(C5CC5)cc4)[C@H]3C)cnc2C(N)=O)cn1 [Example A-186, 5-((2R,3R)-3-(4-cyclopropylbenzamido)-2-methylpiperidin-1-yl)-3-(1-(2-methoxylethyl)-1H-pyrazol-4-ylamino)pyrazine-2-carboxamide]
100 to 1000 nM	1000 to 10000 nM	> 10000 nM	1000 to 10000 nM	> 10000 nM						Cn1cc(Nc2nc(N3C[C@@H](NC(=O)c4ccc(C5CC5)cc4)CC(F)(F)C3)cnc2C(N)=O)cn1 [Example A-187, (S)-5-(5-(4-cyclopropylbenzamido)-3,3-difluoropiperidin-1-yl)-3-(1-methyl-1H-pyrazol-4-ylamino)pyrazine-2-carboxamide]
≤ 10 nM	1000 to 10000 nM	100 to 1000 nM	1000 to 10000 nM	100 to 1000 nM						Cn1cc(Nc2nc(N3C[C@H](NC(=O)c4ccc(C5CC5)cc4)CC(F)(F)C3)cnc2C(N)=O)cn1 [Example A-188, (R)-5-(5-(4-cyclopropylbenzamido)-3,3-difluoropiperidin-1-yl)-3-(1-methyl-1H-pyrazol-4-ylamino)pyrazine-2-carboxamide]
≤ 10 nM	1000 to 10000 nM	100 to 1000 nM	1000 to 10000 nM	100 to 1000 nM						C[C@@H]1[C@H](NC(=O)c2ccc(C3CC3)c(Cl)c2)CCCN1c1cnc(C(N)=O)c(Nc2ccc(N3CCN(C)CC3)cc2)n1 [Example A-189, 5-((2R,3R)-3-(3-chloro-4-cyclopropylbenzamido)-2-methylpiperidin-1-yl)-3-(4-(4-methylpiperazin-1-yl)phenylamino)pyrazine-2-carboxamide]
≤ 10 nM	1000 to 10000 nM	100 to 1000 nM	1000 to 10000 nM	10 to 100 nM						C[C@@H]1[C@H](NC(=O)c2ccc(C3CC3)nc2)CCCN1c1cnc(C(N)=O)c(Nc2cnn(C)c2)n1 [Example A-190, 5-((2R,3R)-3-(6-cyclopropylnicotinamido)-2-methylpiperidin-1-yl)-3-(1-methyl-1H-pyrazol-4-ylamino)pyr-azine-2-carboxamide]
					≤ 10 nM	1000 to 10000 nM	< 10 nM	10 to 100 nM	≤ 10 nM	Cc1cc(Nc2nc(N3CC[C@H](O)[C@@H](N4CCC[C@@H](Nc5cc(Cl)cc(C(F)(F)F)c5)C4=O)C3)nnc2C(N)=O)sn1 [Example E-10, 3-((3R,3'S,4'S)-3-(3-chloro-5-(trifluoromethyl)phenylamino)-4′-hydroxy-2-oxo-1,3′-bipiperidin-1-yl)-5-(3-methylisothiazol-5-ylamino)-1,2,4-triazine-6-carboxamide]
					≤ 10 nM	< 10 nM	10 to 100 nM	≤ 10 nM	10 to 100 nM	C=CC(=O)N1CCC[C@@H](Nc2nnc(C(N)=O)c(Nc3cc(C)ns3)n2)C1 [Example E-11, (R)-3-(1-acryloylpiperidin-3-ylamino)-5-(3-methylisothiazol-5-ylamino)-1,2,4-triazine-6-carboxamide]

The remaining lines, values behind:

Structure (SMILES)	IC50 ([1]; Table 13, A compounds)	IC50 [2, 6]	IC50 [3, 6]	IC50 [4, 6]	IC50 [5, 6]	IC50 ([1]; E compounds, Table 17)	IC50 ([2]; E compounds, Table 17)	IC50 ([3]; E compounds, Table 17)	IC50 ([4]; E compounds, Table 17)	IC50 ([5]; E compounds, Table 17)
C[C@@H]1[C@H](NC(=O)c2ccc(C3CC3)cc2F)CCCN1c1cnc(C(N)=O)c(Nc2ccc(N3CCN(C)CC3)nc2)n1 [Example A-177, 5-[(2R,3R)-3-(4-cyclopropyl-2-fluorobenzamido)-2-methylpiperidin-1-yl]-3-{[6-(4-methylpiperazin-1-yl)pyridin-3-yl]amino}pyrazine-2-caoxamide]	≤ 10 nM	1000 to 10000 nM	100 to 1000 nM	1000 to 10000 nM	100 to 1000 nM					
CN1CCC(n2cc(Nc3nc(N4CCC[C@@H](n5ccc6cc(C7CC7)ccc6c5=O)C4)cnc3C(N)=O)cn2)CC1 [Example A-178, 5-[(3R)-3-(6-cyclopropyl-1-oxo-1,2-dihydroisoquinolin-2-yl)piperidin-1-yl]-3-{[1-(1-methylpiperidin-4-yl)-1H-pyrazol-4-yl]amino}pyrazine-2-carboxamide]	≤ 10 nM	1000 to 10000 nM	100 to 1000 nM	1000 to 10000 nM	100 to 1000 nM					
C[C@@H]1[C@H](NC(=O)c2ccc(C3CC3)cn2)CCCN1c1cnc(C(N)=O)c(Nc2ccc(N3CCN(C)CC3)cc2)n1 [Example A-179, 5-[(2R,3R)-3-(5-cyclopropyl-pyridine-2-amido)-2-methylpiperidin-1-yl]-3-{[4-(4-methylpiperazin-1-yl)phenyl]amino}pyrazine-2-carboxamide]	≤ 10 nM	1000 to 10000 nM	100 to 1000 nM	100 to 1000 nM	10 to 100 nM					
C[C@@H]1[C@H](NC(=O)c2ccc(C3CC3)cc2Cl)CCCN1c1cnc(C(N)=O)c(Nc2ccc(N3CCN(C)CC3)cc2)n1 [Example A-180, 5-[(2R,3R)-3-(2-chloro-4-cyclopropylbenzamido)-2-methylpiperidin-1-yl]-3-{[4-(4-methylpiperazin-1-yl)phenyl]amino}pyrazine-2-carboxamide]	≤ 10 nM	1000 to 10000 nM	10 to 100 nM	100 to 1000 nM	100 to 1000 nM					
C[C@@H]1[C@H](NC(=O)c2ccc(C3CC3)cc2)CCCN1c1cnc(C(N)=O)c(Nc2cc(CN3CCCCC3)ns2)n1 [Example A-181, 5-[(2R,3R)-3-(4-cyclopropylbenzamido)-2-methylpiperidin-1-yl]-3-{[3-(piperidin-1-ylmethyl)-1,2-thiazol-5-yl]amino}pyrazine-2-carboxamide]	≤ 10 nM	100 to 1000 nM	10 to 100 nM	1000 to 10000 nM	10 to 100 nM					
C[C@@H]1[C@H](NC(=O)c2ccc(C3CC3)cc2)CCCN1c1cnc(C(N)=O)c(Nc2cnn(CCN(C)C)c2)n1 [Example A-182, 5-[(2R,3R)-3-(4-cyclopropylbenzamido)-2-methylpiperidin-1-yl]-3-({1-[2-(dimethylamino)ethyl]-1H-pyrazol-4-yl}amino)pyrazine-2-carboxamide]	10 to 100 nM	1000 to 10000 nM	100 to 1000 nM	1000 to 10000 nM	100 to 1000 nM					
Cc1cc(Nc2nc(N3CCC[C@@H](NC(=O)N4Cc5ccccc5C4=O)C3)cnc2C(N)=O)sn1 [Example A-183, N-[(3R)-1-{5-carbamoyl-6-[(3-methyl-1,2-thiazol-5-yl)amino]pyrazin-2-yl}piperidin-3-yl]-1-oxo-2,3-dihydro-1H-isoindole-2-carboxamide]	≤ 10 nM	1000 to 10000 nM	10 to 100 nM	100 to 1000 nM	10 to 100 nM					
C[C@@H]1[C@H](NC(=O)c2ccc(C(C)(C)C)cc2)CCCN1c1cnc(C(N)=O)c(Nc2ccc(N3CCN(C)CC3)cc2)n1 [Example A-184, 5-[(2R,3R)-3-(4-tert-butylbenzamido)-2-methylpiperidin-1-yl]-3-{[4-(4-methylpiperazin-1-yl)phenyl]amino}pyrazine-2-carboxamide]	≤ 10 nM	> 10000 nM	> 10000 nM	1000 to 10000 nM	1000 to 10000 nM					
